# Reference: patent publication US10610520B2, “Heterocyclic compound” (Takeda Pharmaceutical Company Limited, priority 2016, dated 2020)
# Target: T1, His-hMAGL (recombinant polyhistidine tagged human MAGL protein) (Homo sapiens, UniProt Q99685)
# T1 construct: made in house; host or cells: E. coli BL21(DE3)
# T1 sequence (Q99685 1-303): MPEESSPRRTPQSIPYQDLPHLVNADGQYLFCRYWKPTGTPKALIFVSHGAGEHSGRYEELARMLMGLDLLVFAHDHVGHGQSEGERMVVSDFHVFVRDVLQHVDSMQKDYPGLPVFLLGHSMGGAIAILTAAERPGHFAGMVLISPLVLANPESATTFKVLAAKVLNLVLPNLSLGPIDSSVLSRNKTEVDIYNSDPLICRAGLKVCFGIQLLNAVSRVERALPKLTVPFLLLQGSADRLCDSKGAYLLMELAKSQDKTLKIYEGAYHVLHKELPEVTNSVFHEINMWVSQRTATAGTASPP
# Experiment: Measurement of MAGL inhibitory activity (arachidonic acid production from 2-arachidonylglycerol, RapidFire-mass spectrometry)
# Type: biochemical
# Details: MAGL inhibitory rate, test compound 10 μM, 60 min preincubation, 2-arachidonylglycerol substrate
# Method in brief: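 Arachidonic acid formed was quantified by online solid-phase extraction and triple-quadrupole MS in negative SRM mode against a d8 internal standard. Reaction: recombinant His-hMAGL (7.5 ng/mL, pH 7.5 Tris buffer with Triton X-100 and BSA) plus 2-AG (5 μL of 150 μM stock) for 10 min at room temperature, quenched with 2% formic acid. Percent inhibition corrected for enzyme-free background.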
row,inhibition at 10 µM [%],Structure (SMILES)
1,100,"O=C1NC2(CCN(C(=O)c3sc4cc(OC(F)(F)F)c(F)cc4c3Cl)C2)CO1 (stereo not shown) [Example 339, 7-((3-chloro-5-fluoro-6-(trifluoromethoxy)-1-benzothiophen-2-yl)carbonyl)-3-oxa-1,7-diazaspiro[4.4]nonan-2-one]"
2,98,"O=C1CCC2(CN(C(=O)c3ccc(-c4coc5ccccc45)cc3)C2)N1 [Example 66, 2-(4-(1-benzofuran-3-yl)benzoyl)-2,5-diazaspiro[3.4]octan-6-one]"
3,100,"O=C1NC2(CO1)CN(C(=O)[C@H]1C[C@H](OCc3ccc(Cl)cc3Cl)C1)C2 [Example 348, 2-((trans-3-((2,4-dichlorobenzyl)oxy)cyclobutyl)carbonyl)-7-oxa-2,5-diazaspiro[3.4]octan-6-one]"
4,102,"O=C1CCC2(CN(C(=O)N3CCC(Cc4ccc(Cl)cc4C(F)(F)F)CC3)C2)N1 [Example 105, 2-((4-(4-chloro-2-(trifluoromethyl)benzyl)piperidin-1-yl)carbonyl)-2,5-diazaspiro[3.4]octan-6-one]"
5,103,"CC(Oc1ccc(F)cc1Cl)C1CCN(C(=O)N2CC3(CCC(=O)N3)C2)CC1 (stereo not shown) [Example 7, 2-((4-(1-(2-chloro-4-fluorophenoxy)ethyl)piperidin-1-yl)carbonyl)-2,5-diazaspiro[3.4]octan-6-one]"
6,100,"O=C1NC2(CO1)CN(C(=O)c1sc3cc(Br)cc(F)c3c1Cl)C2 [Example 285, 2-((6-bromo-3-chloro-4-fluoro-1-benzothiophen-2-yl)carbonyl)-7-oxa-2,5-diazaspiro[3.4]octan-6-one]"
7,101,"Cc1cccc(-c2ccc3c(Cl)c(C(=O)N4CC5(CCC(=O)N5)C4)sc3c2)c1 [Example 186, 2-((3-chloro-6-(3-methylphenyl)-1-benzothiophen-2-yl)carbonyl)-2,5-diazaspiro[3.4]octan-6-one]"
8,99,"O=C1CCC2(CN(C(=O)c3ccc(-c4ccc5c(c4)CCC5)cc3)C2)N1 [Example 57, 2-(4-(2,3-dihydro-1H-inden-5-yl)benzoyl)-2,5-diazaspiro[3.4]octan-6-one]"
9,100,"O=C1CCC2(CN(C(=O)c3sc4cc(-c5c(F)cccc5F)ccc4c3Cl)C2)N1 [Example 213, 2-((3-chloro-6-(2,6-difluorophenyl)-1-benzothiophen-2-yl)carbonyl)-2,5-diazaspiro[3.4]octan-6-one]"
10,100,"O=C1NC2(CO1)CN(C(=O)c1sc3c(Cl)c(OC(F)F)cc(F)c3c1Cl)C2 [Example 303, 2-((3,7-dichloro-6-(difluoromethoxy)-4-fluoro-1-benzothiophen-2-yl)carbonyl)-7-oxa-2,5-diazaspiro[3.4]octan-6-one]"
11,100,"O=C1NC2(CO1)CN(C(=O)c1sc3c(F)c(OC(F)(F)F)cc(F)c3c1Cl)C2 [Example 315, 2-((3-chloro-4,7-difluoro-6-(trifluoromethoxy)-1-benzothiophen-2-yl)carbonyl)-7-oxa-2,5-diazaspiro[3.4]octan-6-one]"
12,100,"O=C1NC2(CCN(C(=O)c3sc4c(F)c(C(F)(F)F)ccc4c3Cl)C2)CO1 (stereo not shown) [Example 342, 7-((3-chloro-7-fluoro-6-(trifluoromethyl)-1-benzothiophen-2-yl)carbonyl)-3-oxa-1,7-diazaspiro[4.4]nonan-2-one]"
13,97,"O=C1CCC2(CN(C(=O)c3ccc(-c4ccc(F)c(F)c4F)cc3)C2)N1 [Example 69, 2-((2′,3′,4′-trifluorobiphenyl-4-yl)carbonyl)-2,5-diazaspiro[3.4]octan-6-one]"
14,101,"O=C1CCC2(CN(C(=O)N3CCC(C(F)(c4ccccc4)c4ccccc4)CC3)C2)N1 [Example 237, 2-((4-(fluoro(diphenyl)methyl)piperidin-1-yl)carbonyl)-2,5-diazaspiro[3.4]octan-6-one]"
15,101,"O=C1NC2(CO1)CN(C(=O)c1sc3cc(C(F)F)cc(C(F)(F)F)c3c1Cl)C2 [Example 291, 2-((3-chloro-6-(difluoromethyl)-4-(trifluoromethyl)-1-benzothiophen-2-yl)carbonyl)-7-oxa-2,5-diazaspiro[3.4]octan-6-one]"
16,98,"O=C1CCC2(CN(C(=O)c3ccc(-c4cccc(OC(F)(F)F)c4)cc3)C2)N1 [Example 60, 2-((3′-(trifluoromethoxy)biphenyl-4-yl)carbonyl)-2,5-diazaspiro[3.4]octan-6-one]"
17,100,"Cc1c(C(=O)N2CC3(COC(=O)N3)C2)sc2c(F)c(OC(F)(F)F)ccc12 [Example 347, 2-((7-fluoro-3-methyl-6-(trifluoromethoxy)-1-benzothiophen-2-yl)carbonyl)-7-oxa-2,5-diazaspiro[3.4]octan-6-one]"

row,inhibition at 10 µM [%],Structure (SMILES)
1,101,"Cc1cc(OC(F)(F)F)cc2sc(C(=O)N3CC4(COC(=O)N4)C3)c(Cl)c12 [Example 296, 2-((3-chloro-4-methyl-6-(trifluoromethoxy)-1-benzothiophen-2-yl)carbonyl)-7-oxa-2,5-diazaspiro[3.4]octan-6-one]"
2,97,"O=C1CCC2(CN(C(=O)c3sc4cc(-c5ccc(C6CC6)cc5)ccc4c3Cl)C2)N1 [Example 217, 2-((3-chloro-6-(4-cyclopropylphenyl)-1-benzothiophen-2-yl)carbonyl)-2,5-diazaspiro[3.4]octan-6-one]"
3,100,"O=C1NC2(CO1)CN(C(=O)c1sc3c(F)c(OC(F)(F)F)ccc3c1Cl)C2 [Example 279, 2-((3-chloro-7-fluoro-6-(trifluoromethoxy)-1-benzothiophen-2-yl)carbonyl)-7-oxa-2,5-diazaspiro[3.4]octan-6-one]"
4,100,"O=C1NC2(CO1)CN(C(=O)[C@H]1C[C@H](OCc3ccc(C(F)(F)F)cc3F)C1)C2 [Example 354, 2-((trans-3-((2-fluoro-4-(trifluoromethyl)benzyl)oxy)cyclobutyl)carbonyl)-7-oxa-2,5-diazaspiro[3.4]octan-6-one]"
5,98,"O=C1CCC2(CN(C(=O)N3CCC(C(F)(F)c4ccc(F)cc4)CC3)C2)N1 [Example 29, 2-((4-(difluoro(4-fluorophenyl)methyl)piperidin-1-yl)carbonyl)-2,5-diazaspiro[3.4]octan-6-one]"
6,99,"O=C1CCC2(CN(C(=O)c3ccc(-c4cccc(OCC(F)(F)F)c4)cc3)C2)N1 [Example 170, 2-((3′-(2,2,2-trifluoroethoxy)biphenyl-4-yl)carbonyl)-2,5-diazaspiro[3.4]octan-6-one]"
7,100,"COc1c(C(=O)N2CC3(COC(=O)N3)C2)sc2c(C(F)(F)F)cccc12 [Example 270, 2-((3-methoxy-7-(trifluoromethyl)-1-benzothiophen-2-yl)carbonyl)-7-oxa-2,5-diazaspiro[3.4]octan-6-one]"
8,96,"Cc1ccc(-c2ccc(C(=O)N3CC4(CCC(=O)N4)C3)cc2)c(Cl)c1 [Example 83, 2-((2′-chloro-4′-methylbiphenyl-4-yl)carbonyl)-2,5-diazaspiro[3.4]octan-6-one]"
9,81,"O=C1CCC2(CN(C(=O)c3ccc(-c4ccccc4)cc3Cl)C2)N1 [Example 117, 2-((3-chlorobiphenyl-4-yl)carbonyl)-2,5-diazaspiro[3.4]octan-6-one]"
10,95,"O=C1CCC2(CN(C(=O)c3sc(-c4cccc(OC(F)(F)F)c4)cc3Cl)C2)N1 [Example 248, 2-((3-chloro-5-(3-(trifluoromethoxy)phenyl)-2-thienyl)carbonyl)-2,5-diazaspiro[3.4]octan-6-one]"
11,88,"O=C1CCC2(CN(C(=O)c3ccc(-c4c(F)cc(F)cc4F)cc3)C2)N1 [Example 77, 2-((2′,4′,6′-trifluorobiphenyl-4-yl)carbonyl)-2,5-diazaspiro[3.4]octan-6-one]"
12,87,"O=C1CCC2(CN(C(=O)c3sc(-c4ccccc4C(F)(F)F)cc3Cl)C2)N1 [Example 180, 2-((3-chloro-5-(2-(trifluoromethyl)phenyl)-2-thienyl)carbonyl)-2,5-diazaspiro[3.4]octan-6-one]"
13,91,"O=C1CCC2(CN(C(=O)[C@H]3C[C@@H](COc4ccc(F)cc4Cl)C3)C2)N1 [Example 25, 2-((cis-3-((2-chloro-4-fluorophenoxy)methyl)cyclobutyl)carbonyl)-2,5-diazaspiro[3.4]octan-6-one]"
14,89,"Cc1cc(-c2ccccc2)sc1C(=O)N1CC2(CCC(=O)N2)C1 [Example 129, 2-((3-methyl-5-phenyl-2-thienyl)carbonyl)-2,5-diazaspiro[3.4]octan-6-one]"
15,99,"O=C1CCC2(CN(C(=O)c3sc4cc(-c5ccc(F)c(Cl)c5)ccc4c3Cl)C2)N1 [Example 226, 2-((3-chloro-6-(3-chloro-4-fluorophenyl)-1-benzothiophen-2-yl)carbonyl)-2,5-diazaspiro[3.4]octan-6-one]"
16,98,"O=C1CCC2(CN(C(=O)c3ccc(-c4ccc(F)c(C(F)(F)F)c4)cc3)C2)N1 [Example 50, 2-((4′-fluoro-3′-(trifluoromethyl)biphenyl-4-yl)carbonyl)-2,5-diazaspiro[3.4]octan-6-one]"

# Same assay, conditions: MAGL inhibitory rate, test compound 10 μM, 60 min preincubation, 2-arachidonylglycerol substrate; 10 µM
row,% inhibition (10 μM) [%],Structure (SMILES)
1,94,"O=C1NC2(CCN(C(=O)c3sc4cc(OC(F)(F)F)ccc4c3Cl)C2)CO1 (stereo not shown) [Example 324, 7-((3-chloro-6-(trifluoromethoxy)-1-benzothiophen-2-yl)carbonyl)-3-oxa-1,7-diazaspiro[4.4]nonan-2-one]"
